Assays:
Assay type in all cases: ADME
[1] = biological target: T1, UDP-glucuronosyltransferase 1A4 (Homo sapiens, UniProt P22310); experiment: Activity of human recombinant UGT1A4 expressed in insect cells assessed as enzyme mediated glucuronidation at 500 uM by LC-MS/MS method
T1 sequence (P22310 whole entry): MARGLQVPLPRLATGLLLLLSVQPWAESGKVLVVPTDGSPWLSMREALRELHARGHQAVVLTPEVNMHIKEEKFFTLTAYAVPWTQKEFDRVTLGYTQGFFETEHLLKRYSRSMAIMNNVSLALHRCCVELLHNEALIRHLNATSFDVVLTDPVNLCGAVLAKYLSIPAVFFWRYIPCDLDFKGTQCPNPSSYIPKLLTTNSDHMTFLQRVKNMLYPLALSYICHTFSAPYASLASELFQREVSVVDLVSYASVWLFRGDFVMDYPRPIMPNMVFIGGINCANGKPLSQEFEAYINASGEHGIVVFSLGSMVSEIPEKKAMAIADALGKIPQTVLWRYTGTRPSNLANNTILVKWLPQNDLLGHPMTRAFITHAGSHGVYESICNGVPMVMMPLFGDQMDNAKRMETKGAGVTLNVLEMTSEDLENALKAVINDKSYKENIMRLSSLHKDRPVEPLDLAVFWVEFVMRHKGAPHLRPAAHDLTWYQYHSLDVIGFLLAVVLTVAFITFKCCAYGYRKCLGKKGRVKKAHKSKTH

[2] = biological target: T2, UDP-glucuronosyltransferase 1A7 (Homo sapiens, UniProt Q9HAW7); experiment: Activity of human recombinant UGT1A7 expressed in insect cells assessed as intrinsic clearance for enzyme mediated glucuronidation per mg protein by LC-MS/MS method
T2 sequence (Q9HAW7 whole entry): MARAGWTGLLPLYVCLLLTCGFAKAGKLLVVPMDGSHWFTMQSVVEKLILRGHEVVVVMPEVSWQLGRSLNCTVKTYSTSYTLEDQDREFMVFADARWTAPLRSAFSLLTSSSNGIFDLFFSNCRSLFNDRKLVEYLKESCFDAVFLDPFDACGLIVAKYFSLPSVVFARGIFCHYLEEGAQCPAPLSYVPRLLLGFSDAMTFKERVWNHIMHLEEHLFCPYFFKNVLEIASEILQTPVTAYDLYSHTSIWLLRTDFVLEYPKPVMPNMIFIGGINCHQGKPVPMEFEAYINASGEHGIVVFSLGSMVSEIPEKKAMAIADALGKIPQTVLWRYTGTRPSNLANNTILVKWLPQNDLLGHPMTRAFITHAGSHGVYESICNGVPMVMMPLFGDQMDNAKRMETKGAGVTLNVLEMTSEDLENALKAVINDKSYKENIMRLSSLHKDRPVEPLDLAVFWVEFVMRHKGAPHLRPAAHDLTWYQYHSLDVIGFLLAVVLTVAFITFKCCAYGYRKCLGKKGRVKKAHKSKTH

Liver microsome [3] = experiment: Drug metabolism in human liver microsomes assessed as drug glucuronidation in presence of 100 to 1000 uM propofol by LC-MS/MS method
[4] = Drug metabolism in human kidney microsomes assessed as drug glucuronidation in presence of […] naloxone by LC-MS/MS method
[5] = Drug metabolism in human kidney microsomes assessed as drug glucuronidation per mg tissue in absence of BSA by LC-MS/MS method
Liver microsome [6] = experiment: Drug metabolism in human liver microsomes assessed as intrinsic clearance for drug glucuronidation per mg tissue in presence of BSA by LC-MS/MS method
[7] = biological target: T3, UDP-glucuronosyltransferase 1A9 (Homo sapiens, UniProt O60656); experiment: Activity of human recombinant UGT1A9 expressed in insect cells assessed as enzyme mediated glucuronidation at 500 uM by LC-MS/MS method
T3 sequence (O60656 whole entry): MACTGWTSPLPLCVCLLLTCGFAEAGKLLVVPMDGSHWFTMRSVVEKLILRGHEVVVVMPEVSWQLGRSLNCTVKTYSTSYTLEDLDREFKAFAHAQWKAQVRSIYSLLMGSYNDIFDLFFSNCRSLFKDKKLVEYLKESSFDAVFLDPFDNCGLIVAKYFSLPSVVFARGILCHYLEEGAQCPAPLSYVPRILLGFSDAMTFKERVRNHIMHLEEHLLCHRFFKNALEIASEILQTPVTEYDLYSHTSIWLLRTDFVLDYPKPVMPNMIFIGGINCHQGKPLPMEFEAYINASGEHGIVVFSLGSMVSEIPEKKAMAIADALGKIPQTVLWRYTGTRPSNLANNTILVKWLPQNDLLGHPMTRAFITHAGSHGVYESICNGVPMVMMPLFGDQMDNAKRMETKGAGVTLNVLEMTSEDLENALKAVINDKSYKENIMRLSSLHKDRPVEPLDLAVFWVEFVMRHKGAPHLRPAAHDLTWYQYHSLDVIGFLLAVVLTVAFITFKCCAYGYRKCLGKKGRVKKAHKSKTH

[8] = biological target: T4, UDP-glucuronosyltransferase 1A10 (Homo sapiens, UniProt Q9HAW8); experiment: Activity of human recombinant UGT1A10 expressed in insect cells assessed as enzyme mediated glucuronidation at 500 uM by LC-MS/MS method
T4 sequence (Q9HAW8 whole entry): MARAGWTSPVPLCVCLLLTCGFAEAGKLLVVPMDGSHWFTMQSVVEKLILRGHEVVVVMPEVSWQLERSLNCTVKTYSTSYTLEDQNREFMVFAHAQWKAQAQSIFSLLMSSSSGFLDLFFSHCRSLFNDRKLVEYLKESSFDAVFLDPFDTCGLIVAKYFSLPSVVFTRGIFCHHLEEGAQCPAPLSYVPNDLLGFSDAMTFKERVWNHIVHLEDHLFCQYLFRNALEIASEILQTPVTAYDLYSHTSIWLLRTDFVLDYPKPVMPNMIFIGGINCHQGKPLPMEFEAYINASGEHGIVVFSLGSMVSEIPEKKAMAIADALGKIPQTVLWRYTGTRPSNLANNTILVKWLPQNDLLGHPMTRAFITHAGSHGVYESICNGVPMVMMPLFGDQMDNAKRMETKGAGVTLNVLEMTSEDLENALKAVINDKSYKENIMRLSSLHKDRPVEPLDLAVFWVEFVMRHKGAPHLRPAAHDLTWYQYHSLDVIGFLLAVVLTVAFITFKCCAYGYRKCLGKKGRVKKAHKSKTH

## CC1=NN(c2ccccc2)C(=O)C1 [EDARAVONE]
[1]
  Drug metabolism: metabolite_not_detected
[2]
  CL: 1.7 µL/min/g
Liver microsome [3]
  Drug metabolism: metabolite_not_detected
[4]
  Drug metabolism: metabolite_detected
[5]
  VmaxH: 336.5 pmol/min/g
  VmaxL: 2396 pmol/min/g
Liver microsome [6]
  CLHH: 16.4 µL/min/g
  CLHL: 3.7 µL/min/mg
[7]
  Drug metabolism: metabolite_detected
[8]
  Drug metabolism: metabolite_detected
